Assay [1] concerns Staphylococcus epidermidis. The assay is described as follows: Antibacterial activity against Staphylococcus epidermidis. Type of assay: functional.
Another assay deals with Staphylococcus. The assay is described as follows: Antibacterial activity against Staphylococcus aureus. It is filed as functional.
A further assay has as its target Isoleucine--tRNA ligase (Escherichia coli K-12, UniProt P00956). The assay is described as follows: Competitive inhibition of Escherichia coli Isoleucyl-tRNA synthetase.
A further assay relates to Escherichia coli. The assay is described as follows: Antibacterial activity against Escherichia coli. It is filed as functional.
In assay [2] the test system is Staphylococcus aureus. The assay can be described thus: Antibacterial activity against methicillin-resistant Staphylococcus aureus. Type of assay: functional.
The nature of assay [3]: Inhibition of Escherichia coli Methionyl-tRNA synthetase.
For the next assay, the system named is Streptococcus pyogenes. The assay is described as follows: Antibacterial activity against Streptococcus pyogenes. It is filed as functional.
Assay [4] can be described thus: Inhibition of Staphylococcus aureus Methionyl-tRNA synthetase.
In assay [5] the test system is Staphylococcus aureus. The assay can be described thus: Antibacterial activity against mupirocin or oxacillin-resistant Staphylococcus aureus. Type of assay: functional.
The nature of assay [6]: Inhibition of Trypanosoma brucei Leucyl-tRNA synthetase.
The test system of the next assay is Trypanosoma brucei. The assay can be described thus: Antitrypanosomal activity against Trypanosoma brucei assessed as growth inhibition. It is filed as functional, organism-based.

Converted amounts (≈) assume the structure as drawn.

Isoleucine--tRNA ligase, sequence (P00956 whole entry): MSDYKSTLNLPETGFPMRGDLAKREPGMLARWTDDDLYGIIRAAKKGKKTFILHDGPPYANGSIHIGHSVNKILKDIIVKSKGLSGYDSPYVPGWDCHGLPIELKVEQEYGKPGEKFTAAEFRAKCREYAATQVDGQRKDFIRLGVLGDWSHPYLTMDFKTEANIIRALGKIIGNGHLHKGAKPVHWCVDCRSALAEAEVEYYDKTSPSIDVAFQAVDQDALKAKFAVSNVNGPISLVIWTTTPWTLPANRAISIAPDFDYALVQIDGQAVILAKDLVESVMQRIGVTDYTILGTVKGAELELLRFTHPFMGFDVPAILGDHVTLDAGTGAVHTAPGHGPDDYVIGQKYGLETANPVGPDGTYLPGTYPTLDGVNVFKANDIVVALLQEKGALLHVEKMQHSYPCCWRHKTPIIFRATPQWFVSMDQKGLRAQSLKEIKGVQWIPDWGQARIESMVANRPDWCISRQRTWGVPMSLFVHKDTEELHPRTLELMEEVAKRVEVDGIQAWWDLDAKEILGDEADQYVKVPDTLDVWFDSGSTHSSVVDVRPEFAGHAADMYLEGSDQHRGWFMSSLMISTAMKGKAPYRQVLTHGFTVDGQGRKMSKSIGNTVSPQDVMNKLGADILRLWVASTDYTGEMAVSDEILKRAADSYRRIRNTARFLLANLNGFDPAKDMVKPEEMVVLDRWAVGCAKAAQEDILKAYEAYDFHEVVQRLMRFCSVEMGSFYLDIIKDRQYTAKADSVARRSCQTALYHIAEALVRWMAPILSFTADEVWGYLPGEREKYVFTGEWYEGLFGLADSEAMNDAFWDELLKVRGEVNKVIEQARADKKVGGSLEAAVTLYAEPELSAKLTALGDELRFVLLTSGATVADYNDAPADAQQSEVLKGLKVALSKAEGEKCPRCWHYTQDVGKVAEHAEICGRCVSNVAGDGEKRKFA

Usually MIC50 stands for the lowest concentration that inhibits either 50% of growth or 50% of the strains tested, depending on the study. The compound `CC(C)C[C@H](NC(=O)[C@H](CC(C)C)N1C[C@@H](CNS(=O)(=O)c2ccccc2)NC1=O)C(=O)O` showed an MIC50 in assay [1] of 100 µM (≈ 48.3 µg/mL).
In the assay on Staphylococcus, `O=C1OCC(NNc2ccc([N+](=O)[O-])cc2)=C1c1ccc(Br)cc1` yielded an MIC50 of 0.42 mg/L (≈ 1.08 µM).
What is called Ki is the dissociation constant of the complex between target and ligand, obtained from inhibition or displacement. A higher Ki goes with lower affinity. For orientation: MIC means the least concentration at which growth counts as inhibited. Low readings indicate greater potency, high ones weaker potency. `C/C(=C\C(=O)OCCCCCCCCC(=O)O)C[C@@H]1OC[C@H](C[C@@H]2O[C@H]2[C@@H](C)[C@H](C)O)[C@@H](O)[C@H]1O` [MUPIROCIN] gave a Ki on Isoleucine--tRNA ligase of 2.5 nM. The MIC with Escherichia coli is 128 mg/L (≈ 256 µM); against Staphylococcus aureus [2], 0.25 mg/L (≈ 0.499 µM).
As usually defined, the MIC90 is an inhibitory concentration at the 90% level, which refers to growth in some studies and to a panel of isolates in others. For the compound `C=C(F)c1sc(CNCCCNc2cc(=O)c3ccccc3[nH]2)c(C)c1Br` [BEDEROCIN], the Ki amounted to 300 nM in [3] and 0.01 nM in [4]. Further, the MIC against Streptococcus pyogenes worked out at 0.03 mg/L (≈ 0.0666 µM). The compound further registered an MIC90 with Staphylococcus aureus [5] of 0.5 mg/L (≈ 1.11 µM).
For orientation: IC50 means the concentration that gives 50% inhibition. Low readings indicate greater potency, high ones weaker potency. Regarding `CCOC(=O)COc1ccc2c(c1)B(O)OC2`, the midpoint of inhibition in [6], the IC50, lay at 1600 nM.
The EC50 is the concentration that produces a half-maximal response. For the compound `CC(=O)C(C)(C)Oc1ccc2c(c1)B(O)OC2`, the EC50 with Trypanosoma brucei came to 370 nM.
`CC(C)C[C@H](NC(=O)[C@H](CC(C)C)N1C[C@@H](CNC(=O)Nc2ccccc2)NC1=O)C(=O)O`: the MIC50 in assay [1] is 6.25 µM (≈ 2.88 µg/mL).
For the compound `CC(C)C[C@H](NC(=O)[C@H](CC(C)C)N1C[C@@H](CNC(=O)Nc2ncccn2)NC1=O)C(=O)O`, the MIC50 in assay [1] came out at 25 µM (≈ 11.6 µg/mL).

The record behind these values is ChEMBL document CHEMBL1914365, “Aminoacyl-tRNA synthetase inhibitors as potential antibiotics” (Eur J Med Chem, 2011).
